PubChem BioAssay AID743369
Calls of active or inactive are those of the source. No rule for the calls is given here.

Target: Acetylcholine-binding protein (Lymnaea stagnalis) (UniProt P58154)
Assay: acetylcholine-binding protein ligand affinity – biochemical, Lymnaea stagnalis, His-tagged, [125I]alpha-bungarotoxin (AID 743369)
Details: Purified AChBP, [125I]-alpha-bungarotoxin displacement, filtration

Acetylcholine-binding protein (Lymnaea stagnalis), sequence (P58154 whole entry, looked up): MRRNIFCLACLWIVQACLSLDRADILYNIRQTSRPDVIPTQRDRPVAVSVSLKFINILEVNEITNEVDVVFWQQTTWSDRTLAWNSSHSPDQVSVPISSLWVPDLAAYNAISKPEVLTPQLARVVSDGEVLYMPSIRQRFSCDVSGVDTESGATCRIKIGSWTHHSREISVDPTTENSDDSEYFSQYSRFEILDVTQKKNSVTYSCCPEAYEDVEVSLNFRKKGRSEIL

SMILES | Ki
C[C@@H](N)[C@H](O)CCCCCCCC(=O)CCCCCCCCCCCCCC[C@@H](O[C@@H]1O[C@H](CO)[C@H](O)[C@H](O)[C@H]1O)[C@@H](C)N | 28000 nM
COc1cc2c3c(ccnc3c1OC)NC=C2 | 3000 nM
COc1cc(CCN)c2c(c1OC)SSSSS2 | 790 nM
COn1c(Br)c2c3c(cccc31)[C@H]1C[C@@H](C)CN(C)[C@@H]1C2 | 830 nM
NC1=N/C(=C2/CCNC(=O)c3[nH]ccc32)C(=O)N1 | inactive
CC/C=C/[C@@H]1CC[C@]2(C[C@H]3CC[C@H]4[C@@H](C(=O)OC(CC)CCCCCCCCCCCCC[C@@H]5O[C@](O)(CCN)[C@H](O)N(CCCN)C5=O)[C@@]5(CCC[C@H](C)O5)NC(=[N+]34)N2)O1 (stereo partly specified) | 2500 nM
